The text below walks through data of PubChem BioAssay AID463203 (Broad Institute, 2010).

In the assay the target is Glycogen synthase kinase-3 alpha (Homo sapiens) (UniProt P49840). In words: concentration-response blocking of human GSK3A – biochemical, luminescence, cell-free homogeneous, retest, dose response (AID 463203). The following applies: GSK-3 alpha enzyme, ADP-Glo luminescence, 60 min. In general terms: In ADP-Glo the light output rises with the ADP produced.

Activity calls are given as the source filed them.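 Rule for the calls: active = more than half of replicate measurements showing over 20% loss of kinase signal relative to plate controls; inconclusive = some but at most half of replicates over 20% loss; inactive = no replicate over 20% signal loss.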

Sequence of Glycogen synthase kinase-3 alpha (Homo sapiens) (P49840 whole entry, looked up): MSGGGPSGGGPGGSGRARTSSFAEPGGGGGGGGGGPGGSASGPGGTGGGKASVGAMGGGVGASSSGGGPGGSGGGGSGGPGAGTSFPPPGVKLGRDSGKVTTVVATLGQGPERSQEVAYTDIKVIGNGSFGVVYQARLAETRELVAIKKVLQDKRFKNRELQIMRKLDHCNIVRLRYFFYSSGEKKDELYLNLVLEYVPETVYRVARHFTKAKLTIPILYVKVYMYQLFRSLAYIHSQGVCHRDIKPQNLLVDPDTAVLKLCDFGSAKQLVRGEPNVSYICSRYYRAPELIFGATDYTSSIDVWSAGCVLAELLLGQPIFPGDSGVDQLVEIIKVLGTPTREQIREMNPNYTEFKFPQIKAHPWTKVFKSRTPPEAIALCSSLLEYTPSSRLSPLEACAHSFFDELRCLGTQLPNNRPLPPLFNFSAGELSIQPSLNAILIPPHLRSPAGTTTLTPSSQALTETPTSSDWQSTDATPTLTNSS

The term AC50 denotes the concentration at which the activity in the assay is half-maximal. Consider `CCN(C(=O)C1CCCN1S(=O)(=O)c1cccc2nsnc12)c1ccccc1` (configuration not stated), for which the AC50 was 23.9 µM.
Consider `CCN1CCN(c2nc(N)c([N+](=O)[O-])c(Nc3ccc(C)cc3)n2)CC1`, for which the AC50 was > 30 µM (inactive).
Consider `CN(C)c1ncnc2c1ncn2C1OC(CO)C(O)C1O` (configuration not stated), for which the AC50 is > 30 µM (inactive).
Consider `CC1=C(C(=O)OCc2ccc3c(c2)OCO3)C(c2ccccc2)NC(=O)N1` (configuration not stated), for which the AC50 was 1.97 µM.
As to `COc1ccc(CNc2cc(NCCCO)c([N+](=O)[O-])c3nonc23)cc1`, the AC50 was 13.3 µM.
As for `CCOC(=O)c1c(C)c[nH]c1C`, the AC50 was > 30 µM (inactive).
As for `O=S(=O)(O)c1cccc(N=Nc2c(O)ccc3ccccc23)c1`, the figure is 8.34 µM.
The same measure for `Cc1cc(C(=O)N/N=C/c2cc(N=Nc3ccccc3)ccc2O)n[nH]1`: > 30 µM (inactive); for `N#CC1=C2SCN(Cc3ccco3)CN2C(=O)CC1c1ccccc1F` (configuration not stated): > 30 µM (inactive); for `COC(=O)c1oc2ccc(Br)cc2c1NC(=O)c1ccccc1`: > 30 µM (inactive).
The same measure for `CC(=O)c1cc(-c2ccc(F)cc2)n(CCC(=O)Nc2cccnc2)c1C`: > 30 µM (inactive).
Take `Fc1ccc(Nc2ncnc3ccccc23)cc1`: the AC50 is > 30 µM (inactive).
Turning to `COc1ccc(-c2cn3cccnc3n2)cc1NC(=O)C(C)C`, the AC50 is > 30 µM (inactive).
As for `CCOC(=O)N1CCN(C(=O)CSc2ccc3nnc(-c4ccccn4)n3n2)CC1`, the figure is > 30 µM (inactive); as for `O=C(CSc1ccc2nnc(-c3ccccc3)n2n1)N1CCCc2ccccc21`, > 30 µM (inactive).
As for `COc1cc(/C=N/O)ccc1OCc1ccc([N+](=O)[O-])cc1`, the figure is > 30 µM (inactive).
As for `O=C(COc1ccccc1Cl)Nc1ccc(Cl)cn1`, the figure is > 30 µM (inactive); as for `O=C(NCc1c(F)cccc1F)c1cc(COc2c(F)cccc2F)on1`, > 30 µM (inactive).
Regarding `COc1ccc(N=Nc2c(C)n[nH]c2C)cc1`, the AC50 was > 30 µM (inactive).
As for `O=C(CSc1nc2ccccc2c(=O)n1-c1ccc(F)cc1F)c1c[nH]c2ccccc12`, the figure is > 30 µM (inactive); as for `CCN1/C(=C/C(C)=O)Sc2ccc(OC)cc21`, 16.5 µM; as for `NCCNc1cc(N2CCCC2)ccc1[N+](=O)[O-]`, > 30 µM (inactive).
As for `Cc1cccc(C(=O)Nc2cccc(C(=O)N/N=C/c3ccccn3)c2)c1`, the figure is 23.3 µM; as for `Cc1ccc2c(c1N)C(=O)c1ccccc1C2=O`, > 30 µM (inactive).
Turning to `O=C(NCCCN1CCOCC1)c1ccc(Cl)cc1[N+](=O)[O-]`, the AC50 is > 30 µM (inactive).
With `Nc1nc(-c2ccccc2)nc(-c2ccccc2O)n1`, the AC50 was 21.4 µM.
The same measure for `CCOc1nc(NCCN2CCOCC2)nc(Nc2ccc([N+](=O)[O-])cc2)n1`: > 30 µM (inactive); for `COc1c(NC(C)=O)c2ccccc2c2ccccc12`: > 30 µM (inactive).
`O=[N+]([O-])c1cc(C(F)(F)F)ccc1NCCCN1CCOCC1`: the AC50 was > 30 µM (inactive).
As for `O=C(c1coc2ccc(O)c(CN3CCOCC3)c12)C1CC1`, the figure is 22.8 µM.
The same measure for `Nc1nc(Nc2ccc(Cl)cc2)n[nH]1`: > 30 µM (inactive); for `COc1ccccc1/C=N/NC(=O)c1ccccc1Cl`: > 30 µM (inactive); for `CC1CCN(Cc2c(C(=O)N/N=C/c3ccc(C(F)(F)F)cc3)nnn2-c2nonc2N)CC1`: > 30 µM (inactive).
The same measure for `CC(=O)Nc1ccc(C2(c3ccc(NC(C)=O)cc3)NC(=O)c3ccccc32)cc1`: > 30 µM (inactive); for `COc1ccc(-c2oc3cc(O)c(OC)c(O)c3c(=O)c2OC)cc1`: > 30 µM (inactive).
For `COc1ccc(CC(=S)N2CCOCC2)cc1`, the AC50 was > 30 µM (inactive).
`CCSc1nc2sc3c(c2c(=O)n1CC)CC(C)(C)OC3`: the AC50 is > 30 µM (inactive).
`Cc1cc(C(=O)c2cccs2)c(N)s1`: the AC50 is 15.6 µM.
Regarding `Oc1[nH]c2ccccc2c1N=Nc1ccccc1`, the AC50 is 13.9 µM.
Consider `CN1/C(=C\C=C(/C#N)C(=O)Nc2ccc(Cl)cc2)C(C)(C)c2ccccc21`, for which the AC50 is > 30 µM (inactive).
`COc1ccc(COC(=O)C2=C(C)NC(=O)NC2c2ccc(F)cc2)cc1` (configuration not stated): the AC50 is > 30 µM (inactive).
Turning to `Cc1cnn(C(=O)c2ccccc2Br)c1`, the AC50 was > 30 µM (inactive).
`Cc1ccccc1C(=O)O/N=C(\N)c1cccc([N+](=O)[O-])c1`: the AC50 was > 30 µM (inactive).
Take `COc1ccc(-c2nnc(SCC(=O)Nc3ccccc3OC)o2)cc1`: the AC50 was > 30 µM (inactive).
Consider `Cc1sc2ncnc(NCc3ccco3)c2c1C`, for which the AC50 was > 30 µM (inactive).
For the molecule `O=C(CNC(=O)c1ccccc1)N/N=C/C=C/c1ccccc1`, the AC50 was > 30 µM (inactive).
The same measure for `Cc1cc(=O)[nH]c(SCC(=O)O)c1C#N`: > 30 µM (inactive); for `C/C(=N/NC(=O)c1ccc(C)s1)c1ccncc1`: 27.3 µM.
With `CC(=O)Nc1ccc(NC(=O)CSc2nc3[nH]ncc3c(=O)n2-c2ccccc2)cc1`, the AC50 is > 30 µM (inactive).
In the case of `FC(F)(F)c1nnc2n1N=C(c1cccs1)CS2`, the AC50 is > 30 µM (inactive).
Take `COc1ccccc1C(=O)NNC(=O)c1cccc(F)c1`: the AC50 is > 30 µM (inactive).
Turning to `Cc1ccc(CSc2nnc(SCC(=O)N/N=C/c3ccc(C(=O)O)cc3)s2)cc1`, the AC50 was > 30 µM (inactive).
Turning to `COc1ccc(/C=C2\Oc3cc(OCC(=O)N4CCC[C@H]4C(=O)O)ccc3C2=O)c(OC)c1OC`, the AC50 is > 30 µM (inactive).
Turning to `Cn1c(O)c(C=NCCc2c[nH]c3ccccc23)c(=O)n(C)c1=O`, the half-maximal activity concentration (AC50) was 27.9 µM.
In the case of `COc1cccc(C(C[N+](=O)[O-])c2c(C)[nH]n(-c3ccccc3)c2=O)c1` (configuration not stated), the AC50 is > 30 µM (inactive).
The same measure for `CC(C)(C)OC(=O)N1CCC(NC(=O)c2[nH]cnc2C(=O)Nc2ccccc2)CC1`: > 30 µM (inactive).
In the case of `c1ccc(CN2CCN(CCCNc3ccc4nnc(-c5ccccc5)n4n3)CC2)cc1`, the AC50 is > 30 µM (inactive).
The same measure for `Cc1cc(O)c2c(-c3ccccc3)cc(=O)oc2c1`: > 30 µM (inactive); for `COc1cc(C(=O)NCC(=O)N/N=C(C)\C=C\c2ccccc2)cc(OC)c1OC`: > 30 µM (inactive); for `Cc1cccc(NC(=O)c2sc3nc4c(c(-c5cccs5)c3c2N)CN(C)CC4)c1`: > 30 µM (inactive).
As for `C/C(=C(/CCO)SSCC1CCCO1)N(C=O)Cc1cnc(C)nc1N` (configuration not stated), the figure is > 30 µM (inactive); as for `Cc1ccc(C2C3=C(CCCC3=O)Nc3[nH]c(=S)[nH]c(=O)c32)cc1` (configuration not stated), > 30 µM (inactive).
The same measure for `CN1CCc2nc3sc(C#N)c(N)c3c(-c3cccs3)c2C1`: 0.675 µM; for `O=C(NCc1ccccc1)c1ccc2c(=O)[nH]c3c(C(=O)NCC4CCCO4)sc(=S)n3c2c1` (configuration not stated): 14 µM.
In the case of `CCOc1ccc(-c2nc(N)ncc2-c2ccccc2)c(O)c1`, the AC50 is 20.7 µM.
As for `CC1CCN(CCCNc2cc(NCCO)c([N+](=O)[O-])c3nonc23)CC1`, the figure is > 30 µM (inactive); as for `Nc1ccc2c(c1)C(=O)c1ccccc1C2=O`, > 30 µM (inactive); as for `COc1ccc(Nc2nc(-c3cc4cccc(OC)c4oc3=O)cs2)cc1`, > 30 µM (inactive).
The same measure for `CCSc1nc2c(c(=O)[nH]1)C(c1ccccn1)C1=C(CC(C)(C)CC1=O)N2` (configuration not stated): > 30 µM (inactive); for `Nc1ncnc2c1ncn2[C@H]1C[C@H](O)[C@@H](CO)O1`: > 30 µM (inactive).
As for `Cc1ccc(NC(=O)CSCc2nc3c(nnn3Cc3ccc(F)cc3)c(=O)[nH]2)c(C)c1`, the figure is > 30 µM (inactive); as for `O=C(c1ccc2c(c1)OCO2)N1CCC2(CC1)OCCO2`, > 30 µM (inactive).
As to `Cc1c(C(=O)OC(C)C)[nH]c2c1C(=O)CCC2`, the AC50 is > 30 µM (inactive).
As for `CN(Cc1c(C(=O)N/N=C/c2ccc(O)cc2)nnn1-c1nonc1N)c1ccccc1`, the figure is 0.243 µM; as for `Fc1ccc(/C=N/Nc2nc3ccccc3[nH]2)cc1F`, > 30 µM (inactive); as for `O=S(=O)(O)c1ccc(N=Nc2ccccc2)cc1`, > 30 µM (inactive).
`Cc1nccnc1Sc1ccccc1`: the AC50 was > 30 µM (inactive).
The same measure for `COCCOC(=O)c1[nH]c2c(c1C)C(=O)CC(c1cc(OC)c(OC)c(OC)c1)C2` (configuration not stated): > 30 µM (inactive); for `Cc1cccc(OCC(=O)NNC(=O)c2cc3ccccc3oc2=O)c1`: > 30 µM (inactive).
The same measure for `O=C1c2cnc3nc(SCc4ccccc4)nn3c2CC2c3ccccc3CCN12` (configuration not stated): > 30 µM (inactive); for `Fc1cccc(/C=N/Nc2nccnc2Cl)c1`: > 30 µM (inactive).
The same measure for `O=c1[nH]nc(SCCS(=O)(=O)c2ccc(F)cc2)n1-c1ccccc1C(F)(F)F`: 17.5 µM; for `O=C(NC1(C(F)(F)F)NC(=O)N(Cc2cccnc2)C1=O)c1ccccc1` (configuration not stated): > 30 µM (inactive).
With `CC(C)N1C(=O)/C(=C/C=C/c2ccco2)C(=O)N(Cc2ccco2)C1=O`, the AC50 is > 30 µM (inactive).
As to `CC(=O)c1cc(-c2ccc(F)cc2)n(CCC(=O)NC(C)(C)C)c1C`, the AC50 is > 30 µM (inactive).
On to `Cc1nc(Nc2ccc(F)cc2)nc(Nc2ccc(F)cc2)c1[N+](=O)[O-]`, for which the AC50 was > 30 µM (inactive).
As for `COc1ccc(Nc2sc(C(=O)c3ccc(Cl)cc3)c(N)c2C(=O)Nc2ccccc2OC)cc1`, the AC50 was > 30 µM (inactive).
As for `NC1=NC(=O)/C(=C/c2cccs2)S1`, the figure is > 30 µM (inactive); as for `Nn1c(SCc2ccccc2F)nnc1-c1ccncc1`, > 30 µM (inactive).
On to `CC1=C(C(=O)OCc2ccc3c(c2)OCO3)C(c2ccc(F)cc2)NC(=O)N1` (configuration not stated), for which the AC50 was 20.3 µM.
As for `CCOC(=O)c1nnn(-c2ccc(OC)cc2)c1N`, the figure is > 30 µM (inactive).
The same measure for `N#CC1=C2SCN(c3ccc(F)cc3)CN2C(=O)CC1c1cccc(F)c1` (configuration not stated): 29.4 µM.
